# Assay results reported in ChEMBL document CHEMBL4014349, “Application of Structure-Based Design and Parallel Chemistry to Identify a Potent, Selective, and Brain Penetrant Phosphodiesterase 2A Inhibitor” (J Med Chem, 2017).
# Legend:
# Format in all cases: ADME, organism-based
# [1] = Drug uptake in mouse brain at […], sc after 30 mins; conditions: read-out: Drug uptake
# [2] = Drug uptake in rat brain at 3 mg/kg, sc after 30 mins; conditions: read-out: Drug uptake
# [3] = system: Brain; test: Unbound concentration in mouse brain at […], sc after 30 mins; conditions: in vivo, 0.5 h
# [4] = system: Brain; test: Unbound concentration in rat brain at 3 mg/kg, sc after 30 mins; conditions: in vivo, 0.5 h
# [5] = Drug uptake in mouse plasma at […], sc after 30 mins
# [6] = Drug uptake in rat plasma at 3 mg/kg, sc after 30 mins
# [7] = system: Plasma; test: Unbound concentration in mouse plasma at […], sc after 30 mins; conditions: in vivo, 0.5 h
# [8] = system: Plasma; test: Unbound concentration in rat plasma at 3 mg/kg, sc after 30 mins; conditions: in vivo, 0.5 h
# [9] = Ratio of unbound concentration in mouse brain to plasma at […], sc after 30 mins; conditions: brain and plasma, read-out: K(p,uu,brain)
# [10] = Ratio of unbound concentration in rat brain to plasma at 3 mg/kg, sc after 30 mins; conditions: brain and plasma, read-out: K(p,uu,brain)
# [11] = Drug uptake in rat cerebrospinal fluid at 3 mg/kg, sc after 30 mins; conditions: read-out: Drug uptake
compound,measurement,setting,value
Cn1ncc(-c2nn(C)c3ncnc(N4CCC4)c23)c1-c1ccc(C(F)(F)F)cc1,concentration at 0.5 h,[1],452 nM
same,concentration at 0.5 h,[2],950 nM
same,Drug uptake(free),[3],43 nM
same,Drug uptake(free),[4],90.2 nM
same,concentration at 0.5 h,[5],798 nM
same,concentration at 0.5 h,[6],776 nM
same,Cp(f),[7],160 nM
same,Cp(f),[8],248 nM
same,Kp uu at 0.5 h,[9],0.27
same,Kp uu at 0.5 h,[10],0.37
same,concentration at 0.5 h,[11],79.9 nM
